According to BigSolDB 2.1:

C=C(C)[C@@H]1CC[C@]2(CO)CC[C@]3(C)[C@H](CC[C@@H]4[C@@]5(C)CC[C@H](O)C(C)(C)[C@@H]5CC[C@]43C)[C@@H]12
solubility (mole fraction)
Conditions	278.2 K	288.2 K	298.2 K	308.2 K	318.2 K
in acetone	0.000689	0.00101	0.0015	0.00203	0.00243
in ethanol	0.000842	0.00096	0.00107	0.00124	0.00135
